Reference: patent US9611248B2, “Chemical compounds” (Syngenta Participations AG, priority 2013, dated 2017)

tested on: a variety of test species; test: Post-emergence herbicidal activity; assay type: in vivo; design: key to ABUTH (Abutilon theophrasti) damage score / AMARE (Amaranthus retroflexus) damage score / ALOMY (Alopecurus myosuroides) damage score / ECHCG (Echinochloa crus-galli) damage score / ZEAMX (Zea mays) damage score / SOLNI (Solanum nigrum) damage score: 0 = no damage to plant, 5 = total damage to plant; settings: rate 250 g/ha, evaluated after 13 days
In short: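 Damage on a 0–5 scale (5 = plant killed) was rated 13 days after treatment. Test species had been sown in standard soil and raised 8 days under glasshouse conditions of 24/16 °C, 14 h light, 65% humidity. They were then sprayed with aqueous solution from an acetone/water 50:50 formulation containing 0.5% Tween 20.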

Point of comparison: `COC1=C(C)C(=O)N(c2cc(Cl)c(-c3ccccc3)cn2)C1O` (stereo not drawn) [AD70], “ABUTH (Abutilon theophrasti) damage score” value 4. Against it:
- COC1=C(C)C(=O)N(c2cc(C(F)(F)F)c(OCCc3ccccc3)cn2)C1O (stereo not drawn) [AD85] — higher, 5

Point of comparison: `COC1=C(C)C(=O)N(c2cc(C(F)(F)F)c(OCCc3ccccc3)cn2)C1O` (stereo not drawn) [AD85], “ALOMY (Alopecurus myosuroides) damage score” value 2. Against it:
- COC1=C(C)C(=O)N(c2cc(Cl)c(-c3ccccc3)cn2)C1O (stereo not drawn) [AD70] — higher, 3

Point of comparison: `COC1=C(C)C(=O)N(c2cc(C(F)(F)F)c(OCCc3ccccc3)cn2)C1O` (stereo not drawn) [AD85], “AMARE (Amaranthus retroflexus) damage score” value 5. Against it:
- COC1=C(C)C(=O)N(c2cc(Cl)c(-c3ccccc3)cn2)C1O (stereo not drawn) [AD70] — the same, 5

Point of comparison: `COC1=C(C)C(=O)N(c2cc(Cl)c(-c3ccccc3)cn2)C1O` (stereo not drawn) [AD70], “ECHCG (Echinochloa crus-galli) damage score” value 1. Against it:
- COC1=C(C)C(=O)N(c2cc(C(F)(F)F)c(OCCc3ccccc3)cn2)C1O (stereo not drawn) [AD85] — higher, 2

Point of comparison: `COC1=C(C)C(=O)N(c2cc(Cl)c(-c3ccccc3)cn2)C1O` (stereo not drawn) [AD70], “SETFA (Setaria faberi) damage score” value 3. Against it:
- COC1=C(C)C(=O)N(c2cc(C(F)(F)F)c(OCCc3ccccc3)cn2)C1O (stereo not drawn) [AD85] — higher, 4

Point of comparison: `COC1=C(C)C(=O)N(c2cc(Cl)c(-c3ccccc3)cn2)C1O` (stereo not drawn) [AD70], “ZEAMX (Zea mays) damage score” value 1. Against it:
- COC1=C(C)C(=O)N(c2cc(C(F)(F)F)c(OCCc3ccccc3)cn2)C1O (stereo not drawn) [AD85] — the same, 1

same assay, conditions: rate 1000 g/ha, evaluated after 13 days

Point of comparison: `C=CCOc1nnc(N2C(=O)C(C)=C(OC)C2O)cc1C(C)C` (stereo not drawn) [BD6], “ABUTH (Abutilon theophrasti) damage score” value 1. Against it:
- COC1=C(C)C(=O)N(c2cc(C(F)(F)F)c(-c3ccccc3C)cn2)C1O (stereo not drawn) [AD132] — higher, 5
- COC1=C(C)C(=O)N(c2cc(C(C)C)c(C(=O)NC(C)(C)C)cn2)C1O (stereo not drawn) [AD89] — higher, 5
- COC1=C(Br)C(O)N(c2cc(C(C)(C)C)ccn2)C1=O (stereo not drawn) [AE2] — higher, 4
- C=Cc1ccc(N2C(=O)C(C)=C(OC)C2O)nc1 (stereo not drawn) [AD33] — higher, 2
- COC1=C(C)C(=O)N(c2cc(C)c(S(=O)(=O)NC(C)(C)C)cn2)C1O (stereo not drawn) [AD94] — the same, 1
- COC1=C(C)C(=O)N(c2cc(C(F)(F)F)c(C(=O)NC(C)(C)C)cn2)C1O (stereo not drawn) [AD54] — higher, 5
- COC1=C(C)C(=O)N(c2cc(C)c(S(=O)(=O)NC(C)C)cn2)C1O (stereo not drawn) [AD95] — higher, 5
- COC1=C(C)C(=O)N(c2cc(C)c(-c3ccccc3F)cn2)C1O (stereo not drawn) [AD121] — higher, 5
- COC1=C(C)C(=O)N(c2cc(C(C)(C)C#N)ncn2)C1O (racemic) [CD8] — higher, 5
- CC(C)C1=C(Cl)C(O)N(c2cc(C(F)(F)F)ccn2)C1=O (stereo not drawn) [AA42] — higher, 3

Point of comparison: `COC1=C(C)C(=O)N(c2cc(C(F)(F)F)c(-c3ccccc3C)cn2)C1O` (stereo not drawn) [AD132], “ALOMY (Alopecurus myosuroides) damage score” value 2. Against it:
- CC1=C(Cl)C(O)N(c2ccc(C)cn2)C1=O (stereo not drawn) [AA36] — lower, 1
- COC1=C(C)C(=O)N(c2cc(C(C)C)c(C(=O)NC(C)(C)C)cn2)C1O (stereo not drawn) [AD89] — higher, 5
- COC1=C(Br)C(O)N(c2cc(C(C)(C)C)ccn2)C1=O (stereo not drawn) [AE2] — lower, 1
- C=Cc1ccc(N2C(=O)C(C)=C(OC)C2O)nc1 (stereo not drawn) [AD33] — lower, 1
- COC1=C(C)C(=O)N(c2cc(C)c(S(=O)(=O)NC(C)(C)C)cn2)C1O (stereo not drawn) [AD94] — lower, 1
- COC1=C(C)C(=O)N(c2cc(C(F)(F)F)c(C(=O)NC(C)(C)C)cn2)C1O (stereo not drawn) [AD54] — higher, 5
- COC1=C(C)C(=O)N(c2cc(C)c(S(=O)(=O)NC(C)C)cn2)C1O (stereo not drawn) [AD95] — higher, 4
- COC1=C(C)C(=O)N(c2cc(C)c(-c3ccccc3F)cn2)C1O (stereo not drawn) [AD121] — higher, 3
- C=CCOc1nnc(N2C(=O)C(C)=C(OC)C2O)cc1C(C)C (stereo not drawn) [BD6] — lower, 1
- CC1=C(Cl)C(O)N(c2cc(Br)ccn2)C1=O (stereo not drawn) [AA31] — lower, 1
- COC1=C(C)C(=O)N(c2cc(C(C)(C)C#N)ncn2)C1O (racemic) [CD8] — higher, 5
- CC(C)C1=C(Cl)C(O)N(c2cc(C(F)(F)F)ccn2)C1=O (stereo not drawn) [AA42] — lower, 1

Point of comparison: `COC1=C(C)C(=O)N(c2cc(C(C)C)c(C(=O)NC(C)(C)C)cn2)C1O` (stereo not drawn) [AD89], “AMARE (Amaranthus retroflexus) damage score” value 5. Against it:
- COC1=C(C)C(=O)N(c2cc(C(F)(F)F)c(-c3ccccc3C)cn2)C1O (stereo not drawn) [AD132] — the same, 5
- CC1=C(Cl)C(O)N(c2ccc(C)cn2)C1=O (stereo not drawn) [AA36] — lower, 4
- COC1=C(Br)C(O)N(c2cc(C(C)(C)C)ccn2)C1=O (stereo not drawn) [AE2] — lower, 2
- C=Cc1ccc(N2C(=O)C(C)=C(OC)C2O)nc1 (stereo not drawn) [AD33] — lower, 1
- COC1=C(C)C(=O)N(c2cc(C)c(S(=O)(=O)NC(C)(C)C)cn2)C1O (stereo not drawn) [AD94] — lower, 0
- COC1=C(C)C(=O)N(c2cc(C(F)(F)F)c(C(=O)NC(C)(C)C)cn2)C1O (stereo not drawn) [AD54] — the same, 5
- COC1=C(C)C(=O)N(c2cc(C)c(S(=O)(=O)NC(C)C)cn2)C1O (stereo not drawn) [AD95] — the same, 5
- COC1=C(C)C(=O)N(c2cc(C)c(-c3ccccc3F)cn2)C1O (stereo not drawn) [AD121] — the same, 5
- C=CCOc1nnc(N2C(=O)C(C)=C(OC)C2O)cc1C(C)C (stereo not drawn) [BD6] — lower, 0
- CC1=C(Cl)C(O)N(c2cc(Br)ccn2)C1=O (stereo not drawn) [AA31] — the same, 5
- COC1=C(C)C(=O)N(c2cc(C(C)(C)C#N)ncn2)C1O (racemic) [CD8] — the same, 5
- CC(C)C1=C(Cl)C(O)N(c2cc(C(F)(F)F)ccn2)C1=O (stereo not drawn) [AA42] — lower, 3

Point of comparison: `COC1=C(C)C(=O)N(c2cc(C(F)(F)F)c(-c3ccccc3C)cn2)C1O` (stereo not drawn) [AD132], “ECHCG (Echinochloa crus-galli) damage score” value 4. Against it:
- CC1=C(Cl)C(O)N(c2ccc(C)cn2)C1=O (stereo not drawn) [AA36] — lower, 2
- COC1=C(C)C(=O)N(c2cc(C(C)C)c(C(=O)NC(C)(C)C)cn2)C1O (stereo not drawn) [AD89] — higher, 5
- COC1=C(Br)C(O)N(c2cc(C(C)(C)C)ccn2)C1=O (stereo not drawn) [AE2] — lower, 2
- C=Cc1ccc(N2C(=O)C(C)=C(OC)C2O)nc1 (stereo not drawn) [AD33] — lower, 3
- COC1=C(C)C(=O)N(c2cc(C)c(S(=O)(=O)NC(C)(C)C)cn2)C1O (stereo not drawn) [AD94] — lower, 1
- COC1=C(C)C(=O)N(c2cc(C(F)(F)F)c(C(=O)NC(C)(C)C)cn2)C1O (stereo not drawn) [AD54] — higher, 5
- COC1=C(C)C(=O)N(c2cc(C)c(S(=O)(=O)NC(C)C)cn2)C1O (stereo not drawn) [AD95] — the same, 4
- COC1=C(C)C(=O)N(c2cc(C)c(-c3ccccc3F)cn2)C1O (stereo not drawn) [AD121] — lower, 3
- C=CCOc1nnc(N2C(=O)C(C)=C(OC)C2O)cc1C(C)C (stereo not drawn) [BD6] — lower, 1
- CC1=C(Cl)C(O)N(c2cc(Br)ccn2)C1=O (stereo not drawn) [AA31] — lower, 2
- COC1=C(C)C(=O)N(c2cc(C(C)(C)C#N)ncn2)C1O (racemic) [CD8] — higher, 5
- CC(C)C1=C(Cl)C(O)N(c2cc(C(F)(F)F)ccn2)C1=O (stereo not drawn) [AA42] — lower, 0

Point of comparison: `C=CCOc1nnc(N2C(=O)C(C)=C(OC)C2O)cc1C(C)C` (stereo not drawn) [BD6], “SETFA (Setaria faberi) damage score” value 2. Against it:
- COC1=C(C)C(=O)N(c2cc(C(F)(F)F)c(-c3ccccc3C)cn2)C1O (stereo not drawn) [AD132] — higher, 5
- CC1=C(Cl)C(O)N(c2ccc(C)cn2)C1=O (stereo not drawn) [AA36] — lower, 1
- COC1=C(C)C(=O)N(c2cc(C(C)C)c(C(=O)NC(C)(C)C)cn2)C1O (stereo not drawn) [AD89] — higher, 5
- COC1=C(Br)C(O)N(c2cc(C(C)(C)C)ccn2)C1=O (stereo not drawn) [AE2] — higher, 4
- C=Cc1ccc(N2C(=O)C(C)=C(OC)C2O)nc1 (stereo not drawn) [AD33] — the same, 2
- COC1=C(C)C(=O)N(c2cc(C)c(S(=O)(=O)NC(C)(C)C)cn2)C1O (stereo not drawn) [AD94] — lower, 1
- COC1=C(C)C(=O)N(c2cc(C(F)(F)F)c(C(=O)NC(C)(C)C)cn2)C1O (stereo not drawn) [AD54] — higher, 5
- COC1=C(C)C(=O)N(c2cc(C)c(S(=O)(=O)NC(C)C)cn2)C1O (stereo not drawn) [AD95] — higher, 5
- COC1=C(C)C(=O)N(c2cc(C)c(-c3ccccc3F)cn2)C1O (stereo not drawn) [AD121] — higher, 5
- CC1=C(Cl)C(O)N(c2cc(Br)ccn2)C1=O (stereo not drawn) [AA31] — higher, 3
- COC1=C(C)C(=O)N(c2cc(C(C)(C)C#N)ncn2)C1O (racemic) [CD8] — higher, 5
- CC(C)C1=C(Cl)C(O)N(c2cc(C(F)(F)F)ccn2)C1=O (stereo not drawn) [AA42] — lower, 0

Point of comparison: `CC(C)C1=C(Cl)C(O)N(c2cc(C(F)(F)F)ccn2)C1=O` (stereo not drawn) [AA42], “ZEAMX (Zea mays) damage score” value 1. Against it:
- COC1=C(C)C(=O)N(c2cc(C(F)(F)F)c(-c3ccccc3C)cn2)C1O (stereo not drawn) [AD132] — higher, 2
- CC1=C(Cl)C(O)N(c2ccc(C)cn2)C1=O (stereo not drawn) [AA36] — lower, 0
- COC1=C(C)C(=O)N(c2cc(C(C)C)c(C(=O)NC(C)(C)C)cn2)C1O (stereo not drawn) [AD89] — higher, 3
- COC1=C(Br)C(O)N(c2cc(C(C)(C)C)ccn2)C1=O (stereo not drawn) [AE2] — the same, 1
- C=Cc1ccc(N2C(=O)C(C)=C(OC)C2O)nc1 (stereo not drawn) [AD33] — lower, 0
- COC1=C(C)C(=O)N(c2cc(C)c(S(=O)(=O)NC(C)(C)C)cn2)C1O (stereo not drawn) [AD94] — lower, 0
- COC1=C(C)C(=O)N(c2cc(C(F)(F)F)c(C(=O)NC(C)(C)C)cn2)C1O (stereo not drawn) [AD54] — higher, 5
- COC1=C(C)C(=O)N(c2cc(C)c(S(=O)(=O)NC(C)C)cn2)C1O (stereo not drawn) [AD95] — lower, 0
- COC1=C(C)C(=O)N(c2cc(C)c(-c3ccccc3F)cn2)C1O (stereo not drawn) [AD121] — the same, 1
- C=CCOc1nnc(N2C(=O)C(C)=C(OC)C2O)cc1C(C)C (stereo not drawn) [BD6] — the same, 1
- CC1=C(Cl)C(O)N(c2cc(Br)ccn2)C1=O (stereo not drawn) [AA31] — lower, 0
- COC1=C(C)C(=O)N(c2cc(C(C)(C)C#N)ncn2)C1O (racemic) [CD8] — higher, 3

Point of comparison: `CC1=C(Cl)C(O)N(c2cc(Br)ccn2)C1=O` (stereo not drawn) [AA31], “SOLNI (Solanum nigrum) damage score” value 5. Against it:
- CC1=C(Cl)C(O)N(c2ccc(C)cn2)C1=O (stereo not drawn) [AA36] — lower, 3
